Test [1] has as its system Heterakis spumosa. In words: In vivo nematode test, infected mice. Also noted: species or system Mäuse. The conditions noted are these: Ganguleterakis spumosa, dose at which 95% of the parasites were killed, oral by gavage on four consecutive days from day 32 after infection, killed day 39, read-out: effektive Dosis. From the text:
Experimentell mit Heterakis spumosa infizierte Mäuse werden 32 Tage nach der Infektion an vier aufeinanderfolgenden Tage oral mittels Schlundsonde behandelt. Die Tiere werden 39 Tage nach der Infektion getötet und die Zahl der Parasiten bestimmt. Es wird die Wirkstoffkonzentration angegeben bei der 95% der Parasiten abgetötet wurden (effektive Dosis): […]

Test [2] relates to Raupe (L5) der Art Spodoptera frugiperda. In words: Spodoptera test (treated artificial diet discs). It is filed as in vivo. The note with it: Spodoptera frugiperda caterpillars (L5) on treated artificial diet; compared with the prior art; figures not given. From the text:
(§1) • Lösungsmittel: 3 Gewichtsteile Aceton • Emulgator: 1 Gewichtsteil Alkylarylpolyglykolether
Zur Herstellung einer zweckmäßigen Wirkstoffzubereitung vermischt man 1 Gewichtsteil Wirkstoff mit der angegebenen Menge Lösungsmittel und der angegebenen Menge Emulgator und verdünnt das Konzentrat mit Wasser auf die gewünschte Konzentrationen.
Kunstfutterscheiben, die in Plastikdosen liegen, werden durch Beträufeln mit der Wirkstoffzubereitung der gewünschten Konzentration behandelt. Nach Eindringen der Lösung besetzt man die Plastikdosen mit je 1 Raupe (L5) der Art Spodoptera frugiperda, wobei je Versuchsglied 5 Wiederholungen aufgestellt werden. Nach der Verpuppung legt man die Tiere eines Versuchsglieds in eine größere Dose. Nach der gewünschten Zeit wird die Abtötung in % bestimmt. Dabei bedeutet 100 X, daß alle Tiere abgetötet wurden; 0 X bedeutet, daß keine Tiere abgetötet wurden.

Test [3] concerns Hymenolepis nana. Briefly: In vivo nematode test, infected mice. The note with it: Rodentolepis nana, dose at which 95% of the parasites were killed, oral by gavage on four consecutive days from day 10 after infection, killed day 17, read-out: effektive Dosis. Also noted: species or system Mäuse. From the text:
Experimentell mit Hymenolepis nana infizierte Mäuse werden 10 Tage nach der Infektion an vier aufeinanderfolgenden Tagen oral mittels Schlundsonde behandelt. Die Tiere werden 17 Tage nach Infektion getötet und die Zahl der Parasiten bestimmt. Es wird die Wirkstoffkonzentration angegeben, bei der 95% der Parasiten abgetötet wurden (effektive Dosis): […]

The test system of test [4] is Caenorhabditis elegans. In words: In vitro nematode test. The note with it: Caenorhabditis elegans, 168 h, concentration at which reproduction is prevented; 7 days at 22°C; read-out: Dosis effectiva. The method, then: 10-^4 g Wirkstoff wurden in 1 ml Wasser oder 0,1 ml Dimethylsulfoxid (DMSO) gelöst. Diese Lösung wurde auf eine Replica-Platte gegeben. Dazu wurden 2 ml einer E-coli-Suspension gegeben, in der man 10-20 weibliche Tiere oder Larven von Caenorhabditis elegans in 0,5 ml M9 Pufferlösung gegeben hat. Die E-coli-Suspension wurde hergestellt indem man 300 ml einer Ubernachthalter eines Uracil-bedürftigen E-coli-Stammes mit 1,8 1 steriler M 9 Pufferlösung versetzte.
Der Versuchsansatz wurde 7 Tage bei 22°C inkubiert und danach ausgewertet. Es wurde bewertet inwieweit der Wirkstoff die Vermehrung beeinträchtigt und die Konzentration angegeben bei der die Vermehrung verhindert wird.

Test [5] concerns Haemonchus contortus. In words: In vivo nematode test, infected sheep (egg count in faeces). Also noted: species or system Schafe. The note with it: sheep infected with normally sensitive or benzimidazole-resistant Haemonchus contortus; oral, pure active substance in gelatin capsules; worm egg count before and after treatment; read-out: Dosis effectiva. From the text:
Haemonchus contortus 1 Schaf
Experimentell mit normal empfindlichen bzw. mit gegen Benzimidazol-Anthelmintika resistenten Haemonchus contortus infizierte Schafe wurden nach Ablauf der Präpatenzzeit des Parasiten behandelt. Die Wirkstoffe wurden als reiner Wirkstoff in Gelatinkapseln oral appliziert.
Der Wirkungsgrad wird dadurch bestimmt, daß man die mit dem Kot ausgeschiedenen Wurmeier vor und nach der Behandlung quantitativ auszählt.
Ein völliges Sistieren der Eiausscheidung nach der Behandlung bedeutet, daß die Würmer abgetrieben wurden oder so geschädigt sind, daß sie keine Eier mehr produzieren.

Test [6] deals with Strongyloides ratti. Briefly: In vivo nematode test, infected rats. Also noted: species or system Ratten. The note with it: Strongyloides ratti, dose at which 95% of the parasites were killed, oral by gavage on three consecutive days from day 7 after infection, killed day 13, read-out: effektive Dosis. From the text: Experimentell mit Strongyloides ratti infizierte Ratten werden 7 Tage nach der Infektion an drei aufeinanderfolgenden Tagen oral mittels Schlundsonde behandelt. Die Tiere werden 13 Tage nach der Infektion getötet und die Zahl der Parasiten bestimmt. Es wird die […] angegeben, bei der 95% der Parasiten abgetötet wurden (effektive Dosis): […]

The test system of test [7] is Mückenlarven (L4) (Aedes aegypti). Briefly: Aedes test (larvae in aqueous preparation). It is filed as in vivo. The note with it: 20 Aedes aegypti larvae (L4) per glass; compared with the prior art; figures not given. From the text: • Löcungcmittal: 3 Gewichtsteile Aceton • Emulgator: 1 Gewichtsteil Alkylarylpolyglykolether
Zur Herstellung einer zweckmäßigen Wirkstoffzubereitung vermischt man 1 Gawichtcteil Wirkstoff mit der angegebenen Menge Löcungcmittel und der angegebenen Menge Emulgator und verdünnt das Konzentrat mit Wasser auf die gewünschte Konzentrationen.
Man füllt die wässrigen Wirkctoffzubereitungen in Gläser und setzt anschließend 20 Mückenlarven (L4) (Aedes aegypti) in jedes Glas ein.
Nach der gewünschten Zeit wird die Abtötung in % bestimmt. Dabei bedeutet 100 X, daß alle Tiere abgetötet wurden; 0 % bedeutet, daß keine Tiere abgetötet wurden.

Test [8] relates to Larven (L3) des Meerrettichkäfers (Phaedon cochleariae). In words: Phaedon larvae test (treated cabbage leaves). The conditions noted are these: Phaedon cochleariae larvae (L3) on treated Brassica oleracea leaves; compared with the prior art; figures not given. It is filed as in vivo.
Excerpt: as §1
Zur Herstellung einer zweckmäßigen Wirkstoffzubereitung vermischt man 1 Gewichtsteil Wirkstoff mit der angegebenen Menge Lösungsmittel und der angegebenen Menge Emulgator und verdünnt das.Konzentrat mit Wasser auf die gewünschte Konzentration.
Kohlpflanzen (Brassica oleracea) werden mit der Wirkstoffzubereitung der gewünschten Konzentration behandelt. Ein Blatt der behandelten Pflanze wird in eine Plastikdose gelegt und mit Larven (L3) des Meerrettichkäfers (Phaedon cochleariae) besetzt. Nach 2 und 4 Tagen wird jeweils ein weiters Blatt von derselben Pflanze für die Nachfütterung verwendet.
Nach der gewünschten Zeit wird die Abtötung in % bestimmt. Dabei bedeutet 100 X, daß alle Käferlarven abgetötet wurden.

Molecules are shown by their SMILES.

Regarding `CN1C(=O)C(C(=O)Nc2ccc(Cl)c(C(F)(F)F)c2)C(=O)N(C)P1(=O)Oc1ccc(Cl)cc1` (stereo not drawn) [Beispiel 9], the ED95 in test [1] worked out at 25 mg/kg; in test [3], 50 mg/kg; in test [6], 25 mg/kg. Further, the Abtötung in % result in test [2] and in test [7] was “überlegene Wirksamkeit gegenüber dem Stand der Technik” each time. In addition, in test [4], the minimal effective concentration worked out at 10 µg/mL. Also, the minimal effective dose in test [5] turned out to be 25 mg/kg.

For `CN1C(=O)C(C(=O)Nc2ccc(Cl)c(C(F)(F)F)c2)C(=O)N(C)P1(=O)Oc1ccccc1` (stereo not drawn) [Beispiel 12], the ED95 in test [1] worked out at 25 mg/kg; in test [6], 100 mg/kg. In addition, the Abtötung in % entry in test [8] and in test [7] was “überlegene Wirksamkeit gegenüber dem Stand der Technik” in each case. Besides, the minimal effective concentration in test [4] amounted to 10 µg/mL.

The record behind these values is patent publication EP0216105A1, “Diazaphosphorines, process for their preparation and their use as pesticide” (priority 1985, dated 1987).
